Experimental data: patent US20260042802A1, “POLYPEPTIDE AND USE THEREOF” (priority 2024, published 2026)

System: mouse acetate acid writhing model
Assay: Mouse acetate acid writhing model
Assay type: in vivo, C57BL/6 mice
Settings: Diclofenac Sodium Group, 30 mg/kg i.p. once daily for 7 days; 8 mice
Source text: Seventy SPF-grade healthy C57BL/6 mice, half male and half female, weighing 22-25 g and 8-10 weeks old, are randomly selected. Seventy C57BL/6 mice are weighed and numbered in ascending order of body weight (No. S1-S70). The mice are randomly divided into seven groups in terms of the randomized numerical table method, which are the saline group and the experimental groups, among which the experimental groups include the PPN-01 group, the PPN-04 group, the PPN-06 group, the PPN-11 group, the PPN-12 group, and the PPN-16 group. The dosing concentration (i.e., the concentration of added polypeptides PPN-01, PPN-04, PPN-06, PPN-11, PPN-12, and PPN-16) in each group is 10 mg/kg, with 10 mice in each group.
(§1) Saline Group: 10 healthy mice are routinely reared for one week; the saline is intraperitoneally injected once daily at a concentration of 10 ml/kg for 7 consecutive days; 15 min after the last injection is finished, 0.7% glacial acetic acid (10 ml/kg) is intraperitoneally injected; and each mouse is observed for their writhing behaviors.
Experimental Group: 10 healthy mice are routinely reared for one week; 10 ml/kg of different polypeptides are injected intraperitoneally at a concentration of 0.1 mL/10 g once daily for 7 consecutive days; 15 min after the last injection is finished, 0.7% glacial acetic acid (10 ml/kg) is intraperitoneally injected; and each mouse is observed for their behaviors in writhing.
During the above experiments, the time of first writhing (writhing latency) and the number of writhing in each mouse within 15 min are recorded immediately after the injection of glacial acetic acid solution in each group of mice. When behavioral responses such as inward concavity of the abdomen, extension of the torso and hind limbs, and elevation of the buttocks occur, it is considered to be a complete writhing response, and the results are shown in Table 3 and FIG. 6.
Forty SPF-grade healthy C57BL/6 mice, half male and half female, weighing 22-25 g and 8-10 weeks old, are randomly selected. Forty C57BL/6 mice are weighed and numbered in ascending order of body weight (No. 1 to No. 40). The mice are randomly divided into five groups according to the randomized numerical table method, namely, the saline group, the low-concentration group (2.5 mg/kg), the medium-concentration group (10 mg/kg), the high-concentration group (40 mg/kg), and the diclofenac sodium group (30 mg/kg), with eight mice in each group.
as §1, with “Group: 8” for “Group: 10”, “their behaviors in writhing. […]” for “their writhing behaviors.”

`O=C(O)Cc1ccccc1Nc1c(Cl)cccc1Cl` [Diclofenac Sodium, diclofenac sodium, reference compound] was tested, and the “Inhibiting Rate (writhing)” value was 77.6%.
